According to US11000033B2, “Ketone or oxime compound, and herbicide” (NISSAN CHEMICAL CORPORATION, priority 2014, dated 2021):

Assays:
Format in all cases: in vivo
[1] = system: Lolium multiflorum Lam.; test: Test Example 5: herbicidal effect by foliage application, plastic box (symbol K); details: 320 g/ha, 3 weeks after application
How it was run: (§1)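 Visual herbicidal score, taken three weeks post-application, of seedlings sprayed on the foliage with water-diluted emulsion at a predetermined amount; plants were 14 days old, greenhouse-raised at 25° C. to 30° C.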

[2] = system: Setaria viridis; test: Test Example 4: herbicidal effect by soil treatment (symbol G); details: application herbicide amount 320 g/ha
How it was run: (§2)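 Seeds were sown in sterilized diluvial soil, covered with about 1.5 cm of soil, and the soil surface was sprayed with a water-diluted emulsion of the compound at a predetermined rate. Plants grew in a greenhouse at 25° C. to 30° C.; effects were scored visually 3 weeks after application.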

[3] = system: Alopecurus myosuroides; test: Test Example 4: herbicidal effect by soil treatment (symbol J); details: application herbicide amount 320 g/ha
How it was run: as §2

[4] = system: Setaria viridis; test: Test Example 5: herbicidal effect by foliage application, plastic box (symbol G); details: 320 g/ha, 3 weeks after application
How it was run: as §1

[5] = system: Digitaria ciliaris; test: Test Example 5: herbicidal effect by foliage application, plastic box (symbol F); details: 320 g/ha, 3 weeks after application
How it was run: as §1

[6] = system: Abutilon theophrasti; test: Test Example 5: herbicidal effect by foliage application, plastic box (symbol M); details: 320 g/ha, 3 weeks after application
How it was run: as §1

[7] = system: Leptochloa chinensis; test: Test Example 3: herbicidal effect by foliage application, Wagner pot (symbol D); details: application herbicide amount 320 g/ha
How it was run: (§3)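 Post-emergence, paddy-type test: seedlings 14 d old in shallow-flooded (0.1–0.5 cm) alluvial soil, 25–30 °C greenhouse. Emulsion diluted to target rate, sprayed on leaves. Read-out: visual effect on each species at 3 weeks, per set criteria.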

[8] = system: Galium spurium; test: Test Example 5: herbicidal effect by foliage application, plastic box (symbol Q); details: 320 g/ha, 3 weeks after application
How it was run: as §1

[9] = system: Echinochloa oryzacola Vasing.; test: Test Example 1: herbicidal activity, application before weed generation in submerged conditions (symbol A); details: application herbicide amount 320 g/ha
How it was run: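 Weeds are sown into submerged alluvial soil alongside transplanted 2.5-leaf rice, and the compound, as an emulsion diluted to a set rate, is applied onto the water before emergence. Rating on the 0–5 herbicidal-ratio scale follows 3 weeks of greenhouse growth at 25–30 °C.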

[10] = system: Chenopodium album; test: Test Example 5: herbicidal effect by foliage application, plastic box (symbol O); details: 320 g/ha, 3 weeks after application
How it was run: as §1

[11] = system: Digitaria ciliaris; test: Test Example 4: herbicidal effect by soil treatment (symbol F); details: application herbicide amount 320 g/ha
How it was run: as §2

[12] = system: Avena fatua; test: Test Example 4: herbicidal effect by soil treatment (symbol I); details: application herbicide amount 320 g/ha
How it was run: as §2

[13] = system: Amaranthus retroflexus; test: Test Example 4: herbicidal effect by soil treatment (symbol N); details: application herbicide amount 320 g/ha
How it was run: as §2

[14] = system: Echinochloa crus-galli var. crus-galli; test: Test Example 3: herbicidal effect by foliage application, Wagner pot (symbol H); details: application herbicide amount 320 g/ha
How it was run: as §3

[15] = system: Apera spica-venti; test: Test Example 5: herbicidal effect by foliage application, plastic box (symbol L); details: 320 g/ha, 3 weeks after application
How it was run: as §1

[16] = system: rice plant; test: Test Example 5: effect on crop by foliage application, plastic box (symbol b); details: 320 g/ha, 3 weeks after application
How it was run: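 Box culture: sterile diluvial soil, seeds spot-sown, ~1.5 cm cover, raised under glass at 25–30° C.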

[17] = system: Stellaria media; test: Test Example 5: herbicidal effect by foliage application, plastic box (symbol P); details: 320 g/ha, 3 weeks after application
How it was run: as §1

[18] = system: rapeseed; test: Test Example 4: effect on crop by soil treatment (symbol g); details: application herbicide amount 320 g/ha
How it was run: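 The test used sterilized diluvial soil. Seed was set down in spots and overlaid with about 1.5 cm of soil before growth in a greenhouse kept at 25° C. to 30° C.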

| SMILES | K: Lolium multiflorum Lam., herbicidal effect grade [1] | G: Setaria viridis, herbicidal effect grade [2] | J: Alopecurus myosuroides, herbicidal effect grade [3] | G: Setaria viridis, herbicidal effect grade [4] | F: Digitaria ciliaris, herbicidal effect grade [5] | M: Abutilon theophrasti, herbicidal effect grade [6] | herbicidal effect on D (Leptochloa chinensis), grade 0-5 [7] | Herbicidal effect grade, A: Echinochloa oryzacola Vasing. [9] | O: Chenopodium album, herbicidal effect grade [10] | F: Digitaria ciliaris, herbicidal effect grade [11] | I: Avena fatua, herbicidal effect grade [12] | N: Amaranthus retroflexus, herbicidal effect grade [13] | herbicidal effect on H (Echinochloa crus-galli var. crus-galli), grade 0-5 [14] | L: Apera spica-venti, herbicidal effect grade [15] | b: directly sowed rice plant, effect on crop grade [16] | P: Stellaria media, herbicidal effect grade [17] | G (Setaria viridis) herbicidal effect grade [2] | J (Alopecurus myosuroides) herbicidal effect grade [3] | F (Digitaria ciliaris) herbicidal effect grade [11] | I (Avena fatua) herbicidal effect grade [12] | also measured |
| --- | --- | --- | --- | --- | --- | --- | --- | --- | --- | --- | --- | --- | --- | --- | --- | --- | --- | --- | --- | --- | --- |
| CCc1cc(C)cc(C)c1C1=C(O)CC(CC(C)=NOC)C1=O (stereo not shown) [6-007] | 5 (Herbicidal ratio of 90% or more (almost completely withered)) | 5 (Herbicidal ratio of 90% or more (almost completely withered)) | 5 (Herbicidal ratio of 90% or more (almost completely withered)) | 5 (Herbicidal ratio of 90% or more (almost completely withered)) | 5 (Herbicidal ratio of 90% or more (almost completely withered)) | 1 (Herbicidal ratio of 5% or higher and lower than 20%) | 5 (Herbicidal ratio of 90% or more (almost completely withered)) | 5 (Herbicidal ratio of 90% or more (almost completely withered)) | 0 (Herbicidal ratio of 5% or lower (almost no effect)) | 5 (Herbicidal ratio of 90% or more (almost completely withered)) | 4 (Herbicidal ratio of 70% or higher and lower than 90%) | 3 (Herbicidal ratio of 40% or higher and lower than 70%) | 5 (Herbicidal ratio of 90% or more (almost completely withered)) | 4 (Herbicidal ratio of 70% or higher and lower than 90%) | 5 (Herbicidal ratio of 90% or more (almost completely withered)) | – | – | – | – | – | Q: Galium spurium, herbicidal effect grade [8]: 0 (Herbicidal ratio of 5% or lower (almost no effect)) |
| Cc1cc(C)c(C2=C(O)CC(CC(=O)C3CC3)C2=O)c(C)c1 (stereo not shown) [2-017] | 5 (Herbicidal ratio of 90% or more (almost completely withered)) | 5 (Herbicidal ratio of 90% or more (almost completely withered)) | 3 (Herbicidal ratio of 40% or higher and lower than 70%) | 5 (Herbicidal ratio of 90% or more (almost completely withered)) | 5 (Herbicidal ratio of 90% or more (almost completely withered)) | 1 (Herbicidal ratio of 5% or higher and lower than 20%) | 5 (Herbicidal ratio of 90% or more (almost completely withered)) | 5 (Herbicidal ratio of 90% or more (almost completely withered)) | – | 5 (Herbicidal ratio of 90% or more (almost completely withered)) | 0 (Herbicidal ratio of 5% or lower (almost no effect)) | 0 (Herbicidal ratio of 5% or lower (almost no effect)) | 5 (Herbicidal ratio of 90% or more (almost completely withered)) | 3 (Herbicidal ratio of 40% or higher and lower than 70%) | 5 (Herbicidal ratio of 90% or more (almost completely withered)) | 0 (Herbicidal ratio of 5% or lower (almost no effect)) | – | – | – | – | g: rapeseed, effect on crop grade [18]: 5 (Herbicidal ratio of 90% or more (almost completely withered)) |
| CON=C(C)CC1CC(OCC#N)=C(c2c(C)cc(C)cc2C)C1=O (stereo not shown) [1-013] | 5 (Herbicidal ratio of 90% or more (almost completely withered)) | – | – | 0 (Herbicidal ratio of 5% or lower (almost no effect)) | 0 (Herbicidal ratio of 5% or lower (almost no effect)) | 0 (Herbicidal ratio of 5% or lower (almost no effect)) | 2 (Herbicidal ratio of 20% or higher and lower than 40%) | 0 (Herbicidal ratio of 5% or lower (almost no effect)) | 0 (Herbicidal ratio of 5% or lower (almost no effect)) | – | – | – | 0 (Herbicidal ratio of 5% or lower (almost no effect)) | 4 (Herbicidal ratio of 70% or higher and lower than 90%) | 2 (Herbicidal ratio of 20% or higher and lower than 40%) | 0 (Herbicidal ratio of 5% or lower (almost no effect)) | 0 (Herbicidal ratio of 5% or lower (almost no effect)) | 0 (Herbicidal ratio of 5% or lower (almost no effect)) | 0 (Herbicidal ratio of 5% or lower (almost no effect)) | 0 (Herbicidal ratio of 5% or lower (almost no effect)) | g (rapeseed) effect on crop grade [18]: 0 (Herbicidal ratio of 5% or lower (almost no effect)); N (Amaranthus retroflexus) herbicidal effect grade [13]: 0 (Herbicidal ratio of 5% or lower (almost no effect)) |
| CON=C(C)CC1CC(OCCSC)=C(c2c(C)cc(C)cc2C)C1=O (stereo not shown) [1-011] | 5 (Herbicidal ratio of 90% or more (almost completely withered)) | – | – | 0 (Herbicidal ratio of 5% or lower (almost no effect)) | 3 (Herbicidal ratio of 40% or higher and lower than 70%) | 0 (Herbicidal ratio of 5% or lower (almost no effect)) | 5 (Herbicidal ratio of 90% or more (almost completely withered)) | 0 (Herbicidal ratio of 5% or lower (almost no effect)) | 0 (Herbicidal ratio of 5% or lower (almost no effect)) | – | – | – | 0 (Herbicidal ratio of 5% or lower (almost no effect)) | 5 (Herbicidal ratio of 90% or more (almost completely withered)) | 2 (Herbicidal ratio of 20% or higher and lower than 40%) | – | 0 (Herbicidal ratio of 5% or lower (almost no effect)) | 0 (Herbicidal ratio of 5% or lower (almost no effect)) | 0 (Herbicidal ratio of 5% or lower (almost no effect)) | 0 (Herbicidal ratio of 5% or lower (almost no effect)) | g (rapeseed) effect on crop grade [18]: 0 (Herbicidal ratio of 5% or lower (almost no effect)); N (Amaranthus retroflexus) herbicidal effect grade [13]: 0 (Herbicidal ratio of 5% or lower (almost no effect)) |
| CON=C(C)CC1CC(OC(=O)OC)=C(c2c(C)cc(C)cc2C)C1=O (stereo not shown) [1-014] | 5 (Herbicidal ratio of 90% or more (almost completely withered)) | – | – | 5 (Herbicidal ratio of 90% or more (almost completely withered)) | 5 (Herbicidal ratio of 90% or more (almost completely withered)) | 5 (Herbicidal ratio of 90% or more (almost completely withered)) | 5 (Herbicidal ratio of 90% or more (almost completely withered)) | 5 (Herbicidal ratio of 90% or more (almost completely withered)) | 3 (Herbicidal ratio of 40% or higher and lower than 70%) | – | – | – | 5 (Herbicidal ratio of 90% or more (almost completely withered)) | 5 (Herbicidal ratio of 90% or more (almost completely withered)) | 5 (Herbicidal ratio of 90% or more (almost completely withered)) | – | 3 (Herbicidal ratio of 40% or higher and lower than 70%) | 5 (Herbicidal ratio of 90% or more (almost completely withered)) | 5 (Herbicidal ratio of 90% or more (almost completely withered)) | 5 (Herbicidal ratio of 90% or more (almost completely withered)) | – |
